According to the Kinase Knowledgebase extract (Sharma et al. 2016):

Target: CDK2 (human) (UniProt P24941)
Experiment: Enzyme Assay

Row | IC50 | SMILES
1 | ≤ 1000 nM | O=C(CCN1CCCCC1)Nc1ccc2cc1OCC=CCn1ccc3ccc(cc31)-c1ccnc(n1)N2
2 | ≤ 1000 nM | C1=CCOCc2cc(ccc2OCCN2CCCC2)Nc2nccc(n2)-c2ccc3c(ccn3CC1)c2
3 | ≤ 1000 nM | C1=CCOCc2cc(ccc2OCCN2CCCC2)Nc2nccc(n2)-c2ccc3ccn(c3c2)CC1
4 | ≤ 1000 nM | CCN(CC)CCNCCOc1ccc2cc1COCC=CCn1ccc3ccc(cc31)-c1ccnc(n1)N2
5 | ≤ 1000 nM | ClCCOc1ccc2cc1COCC=CCn1ccc3ccc(cc31)-c1ccnc(n1)N2
6 | ≤ 1000 nM | O=C(CCN1CCCCC1)Nc1ccc2cc1OCCC=CCn1ccc3ccc(cc31)-c1ccnc(n1)N2
7 | ≤ 1000 nM | C1=CCn2ccc3ccc(cc32)-c2ccnc(n2)Nc2ccc(OCCN3CCCC3)c(c2)COC1
8 | ≤ 1000 nM | CN1CCN(c2ccc3cc2COCC=CCn2ccc4ccc(cc42)-c2ccnc(n2)N3)CC1
9 | ≤ 1000 nM | C1=CCn2ccc3ccc(cc32)-c2ccnc(n2)Nc2cccc(c2)OCC1
10 | ≤ 1000 nM | Cc1cnc2nc1-c1ccc3ccn(c3c1)CC=CCOCc1cc(ccc1OCCN1CCCC1)N2
11 | ≤ 1000 nM | CN1CC=CCCn2ccc3ccc(cc32)-c2ccnc(n2)Nc2cccc(c2)C1
12 | ≤ 1000 nM | CC(=O)NCCNCCOc1ccc2cc1COCC=CCn1ccc3ccc(cc31)-c1ccnc(n1)N2
13 | ≤ 1000 nM | C1=CCn2ccc3ccc(cc32)-c2ccnc(n2)Nc2cccc(c2)COC1
